# Results: publication PMC8547495 (Journal of medicinal chemistry, 2021)
# Entries after “also recorded” stand apart in the source; their conditions may differ.
# Experiments:
# SARS-CoV-2 = details: at 33 μM, the maximum soluble dose; cited from earlier work
# SARS-CoV-2 PLpro [1] = molecular target: T1, SARS-CoV-2 PLpro (Severe acute respiratory syndrome coronavirus 2, UniProt P0DTD1); assay type: biochemical; details: for PLpro inhibition potency in words: compared with GRL0617 / parent
# SARS-CoV-2 PLpro [2] = molecular target: T1, SARS-CoV-2 PLpro; assay: biochemical; assay type: binding
# A549 cells = details: for cytotoxicity compared with 1: at 100 μM; for concentration below which cytotoxicity was not observed: under the antiviral assay conditions, A549-hACE2
# in vivo = details: male, C57BL/6, mouse, ip, 50 mg/kg
# SARS-CoV-2 USA/WA1/2020 = assay type: cell-based; details: 20 μM, remdesivir 10 μM / 20 μM
# [3] = microsomes, 2 μM
compound,measurement,setting,value
COc1cc(CNC(=O)C2CCN(C(C)c3cccc4ccccc34)CC2)ccn1 (racemic) [rac5c],antiviral activity compared to remdesivir,SARS-CoV-2,60%
Cc1ccc(N)cc1C(=O)N[C@H](CCO)c1cccc2ccccc12 [DY2-97],PLpro inhibition potency in words,SARS-CoV-2 PLpro [1],almost completely inactive
CNC(=O)C[C@@H](NC(=O)c1cc(N(C)C2CNC2)ccc1C)c1cccc2ccccc12 [DY2-116],PLpro inhibition potency in words,SARS-CoV-2 PLpro [1],almost completely inactive
same,IC50,"SARS-CoV-2 PLpro [1]; read-out: Enzyme inhibition IC50, SARS-CoV-2 PLpro, Z-RLRGG-AMC substrate",> 100 µM
same,Kd,SARS-CoV-2 PLpro [2],> 1000 µM
Cc1ccc(NC2CNC2)cc1C(=O)N[C@H](C)c1cccc(-c2ccc(CNC3CCCC3)s2)c1 [XR8-23],cytotoxicity compared with 1,A549 cells,more cytotoxic than 1
same,concentration below which cytotoxicity was not observed,A549 cells,< 10 µM
same,Cmax,in vivo,12 to 13 µM
Cc1ccc(NC2CNC2)cc1C(=O)N[C@H](C)c1cccc(-c2ccc(CN3CCCC3)s2)c1 [XR8-24],effect of treatment on viral RNA versus remdesivir,SARS-CoV-2 USA/WA1/2020,not significantly different from that of remdesivir; also recorded: not significantly different from the FDA-approved RdRp inhibitor remdesivir
same,cytotoxicity compared with 1,A549 cells,more cytotoxic than 1
same,concentration below which cytotoxicity was not observed,A549 cells,< 50 µM
same,Cmax,in vivo,12 to 13 µM
Cc1ccc(NC2CNC2)cc1C(=O)N[C@H](C)c1cccc2ccccc12 [ZN-2-184],improvement in affinity relative to GRL0617,SARS-CoV-2 PLpro [2]; SPR,two-fold improvement in affinity
same,gain in binding stabilization from SPR affinity,"SARS-CoV-2 PLpro [2]; relative to GRL0617, engaging Site I or BL2 groove alone",0.57 kcal/mol
CC[C@@H](NC(=O)c1cc(N(C)C2CNC2)ccc1C)c1cccc2ccccc12 [ZN-3-61],PLpro inhibition potency in words,SARS-CoV-2 PLpro [1],significant decrease in potency
Cc1ccc(NC2CNC2)cc1C(=O)N[C@H](C)c1cccc(-c2cccs2)c1 [ZN-3-80],human liver microsome stability in words,[3],more stable than GRL0617
